Key:
Type in all cases: cell-based
[1] = system: H1299_eGFP cells; assay: siNG transfection and sequential adjuvant treatment, eGFP silencing by flow cytometry
[2] = system: H1299_WT cells; assay: Release of FITC-dextrans into the cytosol (confocal microscopy); conditions: 40 μM, 20 h, 10 kDa FITC-dextran; listed as DL
Method: To visualize the FITC-dextran release, a 1 mg/mL dispersion of 10 kDa FITC-dextrans (Sigma-Aldrich, Belgium) in complete cell medium was added during 1 hour at 37° C. in a humidified atmosphere containing 5% CO2. To assess oligonucleotide escape, the NGs were first loaded with 100 nM Alexa Fluor 647-labeled oligonucleotides (21-mer) (Eurogentec, Belgium) according to the procedure described for siRNA complexation. Of note, these oligonucleotides transfer to the nucleus upon release into the cytosol (Rehman et al., ACS Nano, 2013). Following four hours of NG transfection or 1 h incubation with FITC-dextrans, the cells were washed with PBS and received 1.5 mL fresh cell medium with or without 10, 20 or 40 μM DL. After an additional incubation period of 20 hours, the cell medium was removed and nuclei were labeled with Hoechst (Molecular Probes™, Belgium) in cell medium during 15 minutes at 37° C. […]
The samples were imaged using a laser scanning confocal microscope (LSCM, C1si, Nikon) and a 60× oil immersion Plan Apo objective (Nikon, Belgium). […] During data analysis with the ImageJ image processing software (NIH) both the total cell number and amount of cells with a diffuse FITC-dextran labeling or oligonucleotide-positive nuclei were counted. […]

[3] = system: H1299_WT cells; assay: Phospholipidosis detection with LipidTOX Red; conditions: 20 h incubation
Method: H1299_WT cells were seeded and allowed to settle overnight as detailed previously. Next, the cells were incubated with a mixture of a 1/1000 dilution of the LipidTOX™ red phospholipidosis detection reagent (Thermo Fisher Scientific, USA) and the desired CAD in complete cell medium. Upon 20 hour incubation, the cells were fixed with 4% PFA and stored at 4° C. covered in Vectashield antifade mounting medium containing DAPI. Imaging occurred with a LSCM and a 100× oil immersion objective. DAPI and the LipidTOX™ red phospholipidosis dye were respectively excited with the 408 nm and 561 nm laser lines and the signal intensity was determined with Image J in minimum 30 cells from 5 images per condition.

[4] = system: H1299_WT cells; assay: Sphingomyelin detection with lysenin; conditions: after siNG transfection
Method: Cell seeding, transfection and DL treatment of the H1299_WT cells occurred similar to the previous microscopy experiments. The subsequent staining procedure was carried out at room temperature. Following one washing step with PBS, the cells were fixed with 4% PFA during 15 minutes. The fixative was removed, the cells washed twice with PBS and permeabilized with 0.5% Tween 20 for 15 minutes. Next, the cells were washed twice with blocking buffer (BB, 2 wt % bovine serum albumin (Amresco, USA) in PBS) and kept in BB during 30 minutes. Upon removal, the cells were incubated 2 hours with a 1 μg/mL lysenin (Sigma-Aldrich, Belgium) solution in BB. Next the cells were washed twice with PBS before incubating 1 hour with the lysenin rabbit anti-human antiserum (1:500 in BB, Peptanova, Germany). Before and after the subsequent 1 hour incubation period with the secondary goat anti-rabbit Alexa Fluor 647 antibody (1:500 in BB, Molecular Probes™, Belgium), cells were washed with BB. Finally the cells were washed with PBS and stored at 4° C. covered with Vectashield containing DAPI. Using the 408 nm and 633 nm laser lines, the nuclei and sphingomyelin were excited respectively and detected with a LSCM and a 60× oil immersion objective.

Clc1ccc2c(c1)CCc1cccnc1C2=C1CCNCC1 [(3) Desloratadine, Desloratadine]
siNG-mediated gene silencing, 2 h versus 20 h incubation ([1]; incubation 2 h or 20 h): improve siNG-mediated gene silencing to a similar extent
adjuvant effect on siNG-mediated eGFP silencing ([1]; sequential treatment 10, 20 or 40 μM, 20 h, siNGs 2 nM siRNA): significant additional silencing
Cells with diffuse FITC-dextran labeling [2]: 26%
LipidTOX Red phospholipid signal [3]: upregulates the presence of phospholipids in a concentration dependent fashion
sphingomyelin (lysenin) signal [4]: signal increases as a function of the desloratadine concentration

Reference: US11033572B2, “Molecular adjuvants for enhanced cytosolic delivery of active agents” (Universiteit Gent, priority 2017, dated 2021)
